{"source": "patent US20220087983A1", "about": "“ACTIVATING PYRUVATE KINASE R” (FORMA Therapeutics, Inc., priority 2020, published 2022)", "key": {"[1]": {"target": "T1, wt-PKR in mature human erythrocytes (Homo sapiens, UniProt P30613)", "T1 construct": "host or cells: purified human RBCs from donors", "assay": "Cell assay: PKR activation in human RBCs (Biovision Pyruvate Kinase Assay)", "format": "cell-based", "method": "The activation of wt-PKR by Compound 1 in mature human erythrocytes ex vivo was evaluated in purified RBCs purchased from Research Blood Components. Cells treated with Compound 1 for 3 hr in glucose-containing media were washed, lysed, and assayed using a Biovision Pyruvate Kinase Assay (K709-100). The assay was repeated multiple times to account for donor-to-donor variability and the relatively narrow dynamic range."}, "[2]": {"test_system": "H295R adreno-cortical carcinoma cell line", "assay": "Cell viability (MTT Kit)", "format": "cell-based", "settings": "at 200 μM", "method": "To assess potential effects on steroidogenesis, Compound 1 was screened for steroid modulation in vitro using the H295R adreno-cortical carcinoma cell line (at 200 to 0.0002 μM) and in an assay to monitor cell viability (MTT Kit). Compound 1 indicated steroid modulation potential (% over vehicle) only at 200 μM, the top concentration tested, with 100% cellular viability at concentrations≤20 μM (90% viability at 200 μM)."}, "[3]": {"assay": "Phase 1 SAD/MAD/food effect: plasma pharmacokinetics in healthy volunteers", "format": "in vivo, human", "from_the_text": "This is a first-in-human (FIH), Phase 1 study of Compound 1 that will characterize the safety, PK, and PD of Compound 1 after a single dose and after repeated dosing first in healthy adult volunteers and then in adolescents or adults with sickle cell disease. Initially, a dose range of Compound 1 in single ascending dose (SAD) escalation cohorts will be explored in healthy subjects. Enrollment of healthy subjects into 2-week multiple ascending dose (MAD) escalation cohorts will be initiated once the safety and PK from at least two SAD cohorts is available to inform the doses for the 2-week MAD portion of the study. The MAD cohorts will then run in parallel to the single dose cohorts. A single dose cohort is planned to understand food effects (FE) on the PK of Compound 1. […] Multiple dose studies in SCD subjects will then be initiated upon completion of MAD studies in healthy volunteers. Compound 1 will be administered in 25 mg and 100 mg tablets delivered orally, prepared as described in Example 1, Step 7.\nIn this study, SAD/MAD cohorts are randomized (3 to 1) to receive Compound 1 or placebo (P). Compound 1 was evaluated first in 4 healthy SAD cohorts and 4 healthy MAD (14-day dosing period) cohorts. Based on the safety, and PK/PD profile from HS, Compound 1 is then evaluated in 1 SCD SAD cohort and 2 SCD MAD cohorts. Specifically, based on the safety and pharmacokinetic/pharmacodynamics (PK/PD) profile in healthy volunteer studies, Compound 1 is evaluated in patients (pts) with SCD, first in a single dose (SD or SAD) cohort and then in multiple-dose (MD or MAD) cohorts (14-day and 12-week). Safety assessments include AEs, vital signs, ECGs and laboratory parameters. PK/PD blood sampling was performed on Day 1 (SAD/MAD) and Day 14 (MAD) and up to 72 h after the last dose and at the end-of-study visit. PD parameters included 2,3-DPG, ATP, and p50 in all cohorts with additional PD studies (including oxygen scan) performed only in the SCD cohorts. PD parameters included 2,3-DPG, ATP, p50, RBC deformability with controlled deoxygenation and reoxygenation (Lorrca® oxygen scan) and varying osmolality (Lorrca® osmoscan)). To maintain study blind, pt identifiers were removed when needed.\nPrimary Outcome Measures: • 1. Incidence, frequency, and severity of adverse events (AEs) per CTCAE v5.0 of a single ascending dose and multiple ascending doses of Compound 1 in adult healthy volunteers and SCD patients. Incidence of abnormal laboratory test results (clinical chemistry, endocrine hematology, urinalysis). Change from baseline in vital signs (blood pressure, respiratory rate, heart rate, and oral temperature). Incidence of treatment-emergent clinically significant abnormal findings in ECGs. • [Time Frame: Up to 3 weeks of monitoring] • 2. […] Area under the plasma concentration-time curve from time zero until the 24-hour time point (AUC0-24) • [Time Frame: Up to 3 weeks of testing] • 5. Area under the plasma concentration-time curve from time zero until last quantifiable time point (AUC0-last) • [Time Frame: Up to 3 weeks of testing] • 6. Area under the plasma concentration-time curve from time zero to infinity (AUC0-inf) • [Time Frame: Up to 3 weeks of testing] • 7. […] Apparent volume of distribution (Vd/F) • [Time Frame: Up to 3 weeks of testing] • 10. Terminal disposition rate constant (Lz) • [Time Frame: Up to 3 weeks of testing] • 11.\nFour healthy SAD cohorts were evaluated at doses of 200, 400, 700, and 1000 mg, and four healthy MAD cohorts received 200 to 600 mg total daily doses for 14 days at QD or BID dosing (100 mg BID, 200 mg BID, 300 mg BID, and 400 mg QD). In the food effect (FE) cohort, 10 healthy subjects received 400 mg of Compound 1 QD with and without food."}, "[4]": {"settings": "human, plasma, oral, HV (N = 6), single dose 700 mg, geometric mean (geometric CV)"}}, "note": "Values joined by “and” are separate entries in the source; they are usually repeats but may differ in a detail not shown here. Identical values can stand only once. Like-named read-outs stand apart in the source and are kept apart here.", "data": [{"compound": "O=C([C@H](CO)c1ccccc1)N1CC2=C(C1)CN(S(=O)(=O)c1cnc3c(c1)OCCO3)C2", "note": "(single isomer, unassigned) [Compound 1]", "values": [{"measurement": "EC50", "setting": "[1]; Cell Assay of Example 4", "result": "< 0.5", "unit": "µM"}, {"measurement": "Max − Min (%)", "setting": "[1]; human RBCs, 3 hr, individual replicates 1-4", "result": "<150% and <100% and <50%"}, {"measurement": "Mean maximum activation increase (Max − Min)", "setting": "[1]; human RBCs, 3 hr, mean of replicates", "result": "<100", "unit": "%"}, {"measurement": "cellular viability", "setting": "[2]", "result": 90, "unit": "%"}, {"measurement": "exposure under fed/fasted conditions", "setting": "[3]; food effect cohort, 400 mg", "result": "similar"}, {"measurement": "PK linearity and time dependence", "setting": "[3]; healthy subject studies", "result": "linear and time-independent PK"}, {"measurement": "observed clearance on day 1 and day 14", "setting": "[3]; healthy subjects, 14 days of dosing", "result": "unchanged"}, {"measurement": "half-life", "setting": "[3]; human, plasma, oral, 700 mg, HV (N = 6), single dose 700 mg, geometric mean (geometric CV), read-out: t1/2 (converted)", "result": 13.3, "unit": "h"}, {"measurement": "half-life", "setting": "[3]; human, plasma, oral, biphasic PK profile, read-out: terminal half-life", "result": "12 to 14", "unit": "h"}, {"measurement": "half-life", "setting": "[3]; human, plasma, oral, healthy volunteers, single doses up to 700 mg, read-out: T1/2", "result": "11 to 15", "unit": "h"}, {"measurement": "AUC(0-t)", "setting": "[3]; human, plasma, oral, HS and SCD subjects similar, read-out: AUC0-24", "result": "~7000", "unit": "ng·h/mL"}, {"measurement": "half-life", "setting": "[3]; human, plasma, oral, HS and SCD subjects similar, read-out: T½", "result": "10 to 13", "unit": "h"}, {"measurement": "AUC(0-inf)", "setting": "[3]; [4]", "result": 7000, "unit": "ng·h/mL"}, {"measurement": "Cmax", "setting": "[3]; [4]", "result": 2200, "unit": "ng/mL"}, {"measurement": "Tmax", "setting": "[3]; human, plasma, oral, HV (N = 6), single dose 700 mg, median [min, max]", "result": 0.5, "unit": "h"}]}]}
